Results on 2 molecules are retold here after US20250197658A1, “ANTIOXIDANT STABILIZERS FOR DIRECT FABRICATION OF ORTHODONTIC APPLIANCES” (Align Technology, Inc., priority 2023, published 2025).

The nature of the data set: Photoinitiator stability: concentrations in recovered resin composition after printing cycles. In kind it is physicochemical. Conditions: for change of concentration in recovered resin composition: with increasing printing cycles.

`Cc1cc(C)c(C(=O)P(=O)(C(=O)c2c(C)cc(C)cc2C)c2ccccc2)c(C)c1` [BAPO, phenylbis(2,4,6-trimethylbenzoyl) phosphine oxide]: the “change of concentration in recovered resin composition” value is “remained constant”. For the same molecule, the “concentration in recovered resin composition” value (1 printing cycle) is on record as 0.98 wt %. Besides, the “concentration in recovered resin composition” value (2 printing cycles) amounted to 1 wt %. Also, the “concentration in recovered resin composition” value (4 printing cycles) is on record as 0.98 wt %. In addition, the “concentration in recovered resin composition” value (6 printing cycles) is reported as 0.99 wt %.
In the case of Vitamin E, the “change of concentration in recovered resin composition” value is recorded as “decreased”. For the same molecule, the “concentration in recovered resin composition” value (1 printing cycle) was determined as 0.0077 wt %. The “concentration in recovered resin composition” value (2 printing cycles) was determined as 0.0063 wt %. The “concentration in recovered resin composition” value (4 printing cycles) is 0.0043 wt %. The “concentration in recovered resin composition” value (6 printing cycles) turned out to be 0.0026 wt %.
